test system: hyperglycemic male KK mice; experiment: Action in depressing blood glucose (Method 1); assay type: in vivo; conditions: Mus musculus, po, 72 h, compound admixed with powder feed at 0.01% (ca. 10 mg/kg/day) for three days, plasma glucose vs control group, read-out: Rate of hypoglycemic activity (%) (blood glucose depression rate)
Protocol: Action in Depressing Blood Glucose (Method 1)
Each compound, admixed with powder feed F-2 (Funabashi Farm) was administered to hyperglycemic male KK mice each having a body weight of 40 g or more at a rate of 0.01% (ca. 10 mg/kg/day) for three days. Meanwhile, mice of a control group were fed with the powder feed only. Then, a blood sample was collected from the caudal vein of each mouse under no anesthesia and centrifuged. The blood glucose in the plasma thus obtained was determined using Glucoloader F (Product of A & T Co., Ltd.).
The blood glucose depression rate were estimated from the following equation:
Blood glucose depression rate (%)=[(Blood glucose in Control group−Blood glucose in administered group)/Blood glucose in Control group]×100

Structure (SMILES)	inhibition in vivo at 10 mg/kg/day [%]
CC(C)c1ccc(OC(Cc2ccc(OCCNC(=O)c3ccc(OCC(F)(F)C(F)F)nc3)cc2)C(=O)O)cc1 (stereo not shown) [Example 103, Sodium 3-[4-[2-[2-(2,2,3,3-tetrafluoropropoxy)pyridine-5-carbonylamino]ethoxy]phenyl]-2-(4-isopropylphenoxy)propionate]	48
CC(C)c1ccc(O[C@@H](Cc2ccc(OCCNC(=O)c3ccc(-c4ccccn4)cc3)cc2)C(=O)O)cc1 [Example 104, (S)-2-(4-Isopropylphenoxy)-3-[4-[2-(4-pyridine-2-ylbenzoylamino)ethoxy]phenyl]propionic acid]	73
CC(C)c1ccc(OC(Cc2ccc(OCCNC(=O)c3ccc(-c4ccc(C(F)(F)F)cn4)cc3)cc2)C(=O)O)cc1 (stereo not shown) [Example 107, 2-(4-isopropylphenoxy)-3-[4-[2-[4-(3-trifluoromethylpyridine-6-yl)benzoylamino]ethoxy]phenyl]propionic acid]	38
CC(C)c1ccc(OC(Cc2ccc(OCCNC(=O)c3ccc(-c4ccc([N+](=O)[O-])cn4)cc3)cc2)C(=O)O)cc1 (stereo not shown) [Example 109, 2-(4-Isopropylphenoxy)-3-[4-[2-[4-(3-nitropyridine-6-yl)benzoylamino]ethoxy]phenyl]propionic acid]	38
COc1ccc(-c2ccc(C(=O)NCCOc3ccc(CC(Oc4ccc(C(C)C)cc4)C(=O)O)cc3)cc2)nc1 (stereo not shown) [Example 111, 2-(4-Isopropylphenoxy)-3-[4-[2-[4-(3-methoxypyridine-6-yl)-benzoylamino]ethoxy]phenyl]propionic acid]	70
CC(C)c1ccc(OC(Cc2ccc(OCCNC(=O)c3ccc(-c4ccc(N(C)C)cn4)cc3)cc2)C(=O)O)cc1 (stereo not shown) [Example 113, 3-[4-[2-[4-(3-Dimethylaminopyridine-6-yl)benzoylamino]ethoxy]-phenyl]-2-(4-isopropylphenoxy)propionic acid]	64
Cc1ccc(OC(Cc2ccc(OCCNC(=O)c3ccc(-c4ccccn4)cc3)cc2)C(=O)O)cc1 (stereo not shown) [Example 115, 2-(4-Methylphenoxy)-3-[4-[2-(4-pyridine-2-ylbenzoylamino)ethoxy]phenyl]propionic acid]	66
CC(C)(C)c1ccc(OC(Cc2ccc(OCCNC(=O)c3ccc(-c4ccccn4)cc3)cc2)C(=O)O)cc1 (stereo not shown) [Example 117, 2-(4-t-Butylphenoxy)-3-[4-[2-(4-pyridine-2-ylbenzoylamino)ethoxy]phenyl]propionic acid]	70
O=C(NCCOc1ccc(CC(Oc2ccc(F)cc2)C(=O)O)cc1)c1ccc(-c2ccccn2)cc1 (stereo not shown) [Example 119, 2-(4-Fluorophenoxy)-3-[4-[2-(4-pyridine-2-ylbenzoylamino)ethoxy]phenyl]propionic acid]	49
O=C(NCCOc1ccc(CC(Oc2ccc(Cl)cc2)C(=O)O)cc1)c1ccc(-c2ccccn2)cc1 (stereo not shown) [Example 121, 2-(4-Chlorophenoxy)-3-[4-[2-(4-pyridine-2-ylbenzoylamino)ethoxy]phenyl]propionic acid]	60
O=C(NCCOc1ccc(CC(Oc2ccc(C(F)(F)F)cc2)C(=O)O)cc1)c1ccc(-c2ccccn2)cc1 (stereo not shown) [Example 123, 3-[4-[2-(4-Pyridine-2-ylbenzoylamino)ethoxy]phenyl]-2-(4-trifluoromethylphenoxy)propionic acid]	43
COc1ccc(OC(Cc2ccc(OCCNC(=O)c3ccc(-c4ccccn4)cc3)cc2)C(=O)O)cc1 (stereo not shown) [Example 125, 2-(4-Methoxyphenoxy)-3-[4-[2-(4-pyridine-2-ylbenzoylamino)ethoxy]phenyl]propionic acid]	54
O=C(NCCOc1ccc(CC(Oc2ccc(OC(F)(F)F)cc2)C(=O)O)cc1)c1ccc(-c2ccccn2)cc1 (stereo not shown) [Example 127, 3-[4-[2-(4-Pyridine-2-ylbenzoylamino)ethoxy]phenyl]-2-(4-trifluoromethoxyphenoxy)propionic acid]	56
O=C(NCCOc1ccc(CC(Oc2cccc(F)c2)C(=O)O)cc1)c1ccc(-c2ccccn2)cc1 (stereo not shown) [Example 137, 2-(3-Fluorophenoxy)-3-[4-[2-(4-pyridine-2-ylbenzoylamino)ethoxy]phenyl]propionic acid]	49
O=C(NCCOc1ccc(CC(Oc2cc(F)cc(F)c2)C(=O)O)cc1)c1ccc(-c2ccccn2)cc1 (stereo not shown) [Example 139, 2-(3,5-Difluorophenoxy)-3-[4-[2-(4-pyridine-2-ylbenzoylamino)ethoxy]phenyl]propionic acid]	23
O=C(NCCOc1ccc(CC(Oc2ccc(F)c(F)c2)C(=O)O)cc1)c1ccc(-c2ccccn2)cc1 (stereo not shown) [Example 141, 2-(3,4-Difluorophenoxy)-3-[4-[2-(4-pyridine-2-ylbenzoylamino)ethoxy]phenyl]propionic acid]	27
O=C(NCCOc1ccc(CC(Oc2cc(F)c(F)c(F)c2)C(=O)O)cc1)c1ccc(-c2ccccn2)cc1 (stereo not shown) [Example 143, 2-(3,4,5-Trifluorophenoxy)-3-[4-[2-(4-pyridine-2-ylbenzoylamino)ethoxy]phenyl]propionic acid]	43
COC(=O)C(Cc1ccc(OCCNC(=O)c2ccc(-c3ccccn3)cc2)cc1)Sc1ccccc1 (stereo not shown) [Example 152, Methyl 2-phenylthio-3-[4-[2-(4-pyridine-2-ylbenzoylamino)ethoxy]phenyl]propionate]	58

same assay, conditions: compound admixed with powder feed at 0.01% (ca. 10 mg/kg/day) for three days, plasma glucose vs control group

Structure (SMILES)	Rate of hypoglycemic activity (%) (blood glucose depression rate)
O=C(NCCOc1ccc(CC(Oc2c(F)c(F)c(F)c(F)c2F)C(=O)O)cc1)c1ccc(-c2ccccn2)cc1 (stereo not shown) [Example 145, 2-Pentafluorophenoxy-3-[4-[2-(4-pyridine-2-ylbenzoylamino)ethoxy]phenyl]propionic acid]	28
